# Measurements reported in patent US20200087340A1, “LIF/LIFR ANTAGONIST IN ONCOLOGY AND NONMALIGNANT DISEASES” (Evestra, Inc., priority 2018, published 2020).
# Legend:
# T47D cells = test: Soft agar colony formation assay; format: cell-based, human; settings: 100 nM concentration
# Description: Colonies of cancer cells formed in soft agar in the presence and absence of the testing compounds is a standard assay to interpret in-vitro tumorigenic potential in the basal layer. Agar was prepared by mixing 1% DNA grade agar melted and cooled to 40° C. with an equal volume of (2×) Dulbecco's Modified Eagle's Medium (DMEM) to obtain 0.5% agar that was dispersed in a 6-well plate and allowed to solidify. A total of 0.6% agar was prepared in RPMI medium and mixed together with T47D cells (0.5×10^6 cells/mL) and immediately plated on the basal layer in the presence or absence of testing compounds. The cultures were incubated at 37° C. in a CO2 incubator for 2 weeks, and colonies were stained with 0.005% crystal violet and observed under a light microscope.
# MDA-MB-468 = test: NCI-60 screening, Breast Cancer; format: cell-based, human
# Description: EC 330 was also tested using the NCI-60 Screening Methodology. The human tumor cell lines of the cancer screening panel are grown in RPMI 1640 medium containing 5% fetal bovine serum and 2 mM L-glutamine. For a typical screening experiment, cells are inoculated into 96 well microtiter plates in 100 μL at plating densities ranging from 5,000 to 40,000 cells/well depending on the doubling time of individual cell lines. After cell inoculation, the microtiter plates are incubated at 37° C., 5% CO2, 95% air and 100% relative humidity for 24 h prior to addition of experimental drugs. […]
# Following drug addition, the plates are incubated for an additional 48 h at 37° C., 5% CO2, 95% air, and 100% relative humidity. […] Bound stain is subsequently solubilized with 10 mM trizma base, and the absorbance is read on an automated plate reader at a wavelength of 515 nm. […] Using the seven absorbance measurements [time zero, (Tz), control growth, (C), and test growth in the presence of drug at the five concentration levels (Ti)], the percentage growth is calculated at each of the drug concentrations levels. Percentage growth inhibition is calculated as: […]
# Three dose response parameters are calculated for each experimental agent. […] The drug concentration resulting in total growth inhibition (TGI) is calculated from Ti=Tz. […]
# HCC-2998 = test: NCI-60 screening, Colon Cancer; format: cell-based, human
# SK-MEL-2 = test: NCI-60 screening, Melanoma; format: cell-based, human
# [1] = tested on: human umbilical vein endothelial cells (HUVEC); test: Matrigel in vitro HUVECs tube formation assay (angiogenesis); format: cell-based; settings: 1 μM concentration, all measured time points
# Description: Matrigel in vitro HUVECs tube formation assay: The tube formation assay was performed using 12-well plate coated with 100 μL Matrigel basement membrane matrix (BD Bioscience) per well and polymerized at 37° C. for 30 min. Human umbilical vascular endothelial cells (HUVECs) suspended in M199 medium containing 2% FBS were plated on the Matrigel at a density of 2×10^5 cells/well. […] After 8 h, the Matrigel-induced morphological changes were photographed and the extent of capillary tube formation was evaluated by measuring the total tube length per field.
# IGROV1 = test: NCI-60 screening, Ovarian Cancer; format: cell-based, human
# Description: Additional four, 10-fold or ½ log serial dilutions are made to provide a total of five drug concentrations plus control.
# For adherent cells, the assay is terminated by the addition of cold TCA. Cells are fixed in situ by the gentle addition of 50 μl of cold 50% (w/v) TCA (final concentration, 10% TCA) and incubated for 60 minutes at 4° C. The supernatant is discarded, and the plates are washed five times with tap water and air dried. Sulforhodamine B (SRB) solution (100 μl) at 0.4% (w/v) in 1% acetic acid is added to each well, and plates are incubated for 10 minutes at room temperature. After staining, unbound dye is removed by washing five times with 1% acetic acid and the plates are air dried. […] Using the seven absorbance measurements [time zero, (Tz), control growth, (C), and test growth in the presence of drug at the five concentration levels (Ti)], the percentage growth is calculated at each of the drug concentrations levels. […]
# Three dose response parameters are calculated for each experimental agent. […] The drug concentration resulting in total growth inhibition (TGI) is calculated from Ti=Tz. […] Values are calculated for each of these three parameters if the level of activity is reached; however, if the effect is not reached or is exceeded, the value for that parameter is expressed as greater or less than the maximum or minimum concentration tested.
# NCI-H460 = test: NCI-60 screening, Non-Small Cell Lung Cancer; format: cell-based, human
# DU-145 = test: NCI-60 screening, Prostate Cancer; format: cell-based, human
# KM12 = test: NCI-60 screening, Colon Cancer; format: cell-based, human
# RPMI-8226 = test: NCI-60 screening, Leukemia; format: cell-based, human
structure (smiles),measurement,setting,value
"C#CC(F)(F)[C@]1(O)CCC2C3CCC4=CC(=O)CCC4=C3C(c3ccc(C4CC4)cc3)C[C@@]21C (stereo partly drawn) [EC330, 17α-(1,1-difluoro-2-propyn-1-yl)-17β-hydroxy-11β-[4-p-(cyclopropyl)phenyl]estra-4,9-dien-3-one]",colonies formed,T47D cells,complete inhibition or no colonies were formed
same,TGI (log10TGI),MDA-MB-468,−6.09
same,TGI (log10TGI),HCC-2998,−4.37
same,TGI (log10TGI),SK-MEL-2,−5.19
same,tube formation,[1],complete abrogation of tube formation
same,TGI (log10TGI),IGROV1,<−8.00
same,TGI (log10TGI),NCI-H460,−4.80
same,TGI (log10TGI),DU-145,−4.75
same,TGI (log10TGI),KM12,−5.91
same,TGI (log10TGI),RPMI-8226,−6.24
